Measured values reported in the supplement of paper PMC11208160.

Assay: recombinant UMI read abundance after kanamycin selection (control-corrected) (log10(CPM+1)); higher = more efficient recombination; extreme values may be limits of the assay; sequences stand for … in AGTGCAGAGAAAATCGGCCAGTTTTCTCTGCCTGCAGTCCGCATGCCGTGGGACCCCTTGGGTTCTAACCTGTTGCCTAGATTTATGCAGCGGACTGCCTTTCTCCCAAAGTGATAAACCGG…AGGTTGGTTTCACT; site = the 11-nt donor
Experimental: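 Pooled E. coli donor-specificity screen for the IS621 bridge recombinase. Each library member carries a reprogrammed 11-nt donor and a full-length LE bridge RNA expressed in cis from the natural promoter, with a paired donor-binding loop (8-nt LDG + 4-nt RDG) and a target-binding loop fixed to T5. It is co-electroporated with a T5 target plasmid; recombinase is induced with 0.07 mM IPTG and recombinants are selected on kanamycin. UMIs are counted as CPM, averaged over two biological replicates and corrected by the unselected control. Molecule = full bridge RNA written as DNA, built from the T5 scaffold: LDG = donor specificity nt 1-8, RDG = reverse complement of nt 8-11.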
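Further: IS621 bridge recombinase in Escherichia coli cells against a fixed T5 target plasmid.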

| Sequence | recombinant UMI read abundance (log10) |
| --- | --- |
| ACGAAGACATGGACCGGTTTTCCCGGTAATCCGTATTTGCA (site AGGAAGACTTG) | 1.81 |
| ACGAAGACATGGACCGGTTTTCCCGGTAATCCGTATTTGCA (site ATGAAGACTTG) | 2.04 |
| ACGAAGACATGGACCGGTTTTCCCGGTAATCCGTATTTGCG (site ACGAAGACTCG) | 2.77 |
| ACGAAGACATGGACCGGTTTTCCCGGTAATCCGTATTTGCG (site AGGAAGACTTG) | 0 |
| ACGAAGTCATGGACCGGTTTTCCCGGTAATCCGTATTTGGG (site ACGAAGTCTCC) | 0.574 |
| ACGAATTCATGGACCGGTTTTCCCGGTAATCCGTATTTGCG (site ACGAATTCTCG) | 2.06 |
| ACGACTTCATGGACCGGTTTTCCCGGTAATCCGTATTTGTT (site ACGACTTCTAA) | 1.23 |
| ACGAGAACATGGACCGGTTTTCCCGGTAATCCGTATTTGTT (site ACGAGAACTAA) | 2.8 |
| ACGCAACCATGGACCGGTTTTCCCGGTAATCCGTATTTGAA (site ACGCAACCTTT) | 0 |
| ACGCGGACATGGACCGGTTTTCCCGGTAATCCGTATTTGTG (site ACGCGGACTCA) | 1.74 |
| ACGCGTCCATGGACCGGTTTTCCCGGTAATCCGTATTTGTG (site ACGCGTCCTCA) | 0.257 |
| ACGCGTGCATGGACCGGTTTTCCCGGTAATCCGTATTTGAC (site ACGCGTGCTGT) | 2.96 |
| ACGCTATCATGGACCGGTTTTCCCGGTAATCCGTATTTGCA (site ACAGTATCTTG) | 1.92 |
| ACGCTATCATGGACCGGTTTTCCCGGTAATCCGTATTTGCA (site ACGCTATCTTG) | 2.75 |
| ACGGACACATGGACCGGTTTTCCCGGTAATCCGTATTTGGT (site ACGGACACTAC) | 1.82 |
| ACGGCCTCATGGACCGGTTTTCCCGGTAATCCGTATTTGGG (site ACGGCCTCTCC) | 0.0343 |
| ACGGGCGCATGGACCGGTTTTCCCGGTAATCCGTATTTGAG (site ACGGGCGCTCT) | 1.15 |
| ACGGTATCATGGACCGGTTTTCCCGGTAATCCGTATTTGCA (site ACAGTATCTTG) | 2.96 |
| ACGGTATCATGGACCGGTTTTCCCGGTAATCCGTATTTGCA (site ACCGTATCTTG) | 1.92 |
| ACGGTATCATGGACCGGTTTTCCCGGTAATCCGTATTTGCA (site ACGGTATCTTG) | 3.16 |
| ACGGTATCATGGACCGGTTTTCCCGGTAATCCGTATTTGCA (site ACTGTATCTTG) | 2.32 |
| ACGGTTTCATGGACCGGTTTTCCCGGTAATCCGTATTTGCA (site ACAGTATCTTG) | 2.71 |
| ACGGTTTCATGGACCGGTTTTCCCGGTAATCCGTATTTGCA (site ACGGTTTCTTG) | 2.34 |
| ACGTCCTCATGGACCGGTTTTCCCGGTAATCCGTATTTGGT (site ACGTCCTCTAC) | 1.51 |

| Sequence | recombinant UMI read abundance (log10) |
| --- | --- |
| ACGTGTGCATGGACCGGTTTTCCCGGTAATCCGTATTTGGT (site ACGTGTGCTAC) | 1.99 |
| ACTAGAACATGGACCGGTTTTCCCGGTAATCCGTATTTGAG (site AATAGAACTCT) | 0.839 |
| ACTAGAACATGGACCGGTTTTCCCGGTAATCCGTATTTGAG (site ACAAGAACTCT) | 1.26 |
| ACTAGAACATGGACCGGTTTTCCCGGTAATCCGTATTTGAG (site ACCAGAACTCT) | 1.23 |
| ACTAGAACATGGACCGGTTTTCCCGGTAATCCGTATTTGAG (site ACGAGAACTCT) | 0.424 |
| ACTAGAACATGGACCGGTTTTCCCGGTAATCCGTATTTGAG (site ACTAAAACTCT) | 0.908 |
| ACTAGAACATGGACCGGTTTTCCCGGTAATCCGTATTTGAG (site ACTACAACTCT) | 0.383 |
| ACTAGAACATGGACCGGTTTTCCCGGTAATCCGTATTTGAG (site ACTAGAACTAT) | 0 |
| ACTAGAACATGGACCGGTTTTCCCGGTAATCCGTATTTGAG (site ACTAGAACTCA) | 0.00396 |
| ACTAGAACATGGACCGGTTTTCCCGGTAATCCGTATTTGAG (site ACTAGAACTCC) | 0.0223 |
| ACTAGAACATGGACCGGTTTTCCCGGTAATCCGTATTTGAG (site ACTAGAACTCG) | 0 |
| ACTAGAACATGGACCGGTTTTCCCGGTAATCCGTATTTGAG (site ACTAGAACTCT) | 1.72 |
| ACTAGAACATGGACCGGTTTTCCCGGTAATCCGTATTTGAG (site ACTAGAACTGT) | 0 |
| ACTAGAACATGGACCGGTTTTCCCGGTAATCCGTATTTGAG (site ACTAGAACTTT) | 0.286 |
| ACTAGAACATGGACCGGTTTTCCCGGTAATCCGTATTTGAG (site ACTAGACCTCT) | 0.00567 |
| ACTAGAACATGGACCGGTTTTCCCGGTAATCCGTATTTGAG (site ACTAGAGCTCT) | 0.324 |
| ACTAGAACATGGACCGGTTTTCCCGGTAATCCGTATTTGAG (site ACTAGATCTCT) | 1.72 |
| ACTAGAACATGGACCGGTTTTCCCGGTAATCCGTATTTGAG (site ACTAGCACTCT) | 0.0125 |
| ACTAGAACATGGACCGGTTTTCCCGGTAATCCGTATTTGAG (site ACTAGGACTCT) | 0.407 |
| ACTAGAACATGGACCGGTTTTCCCGGTAATCCGTATTTGAG (site ACTAGTACTCT) | 0.0383 |
| ACTAGAACATGGACCGGTTTTCCCGGTAATCCGTATTTGAG (site ACTATAACTCT) | 1.22 |
| ACTAGAACATGGACCGGTTTTCCCGGTAATCCGTATTTGAG (site ACTCGAACTCT) | 0.115 |
| ACTAGAACATGGACCGGTTTTCCCGGTAATCCGTATTTGAG (site ACTGGAACTCT) | 0.3 |
| ACTAGAACATGGACCGGTTTTCCCGGTAATCCGTATTTGAG (site ACTTGAACTCT) | 0.118 |

| Sequence | recombinant UMI read abundance (log10) |
| --- | --- |
| ACTAGAACATGGACCGGTTTTCCCGGTAATCCGTATTTGAG (site AGTAGAACTCT) | 0.227 |
| ACTAGAACATGGACCGGTTTTCCCGGTAATCCGTATTTGAG (site ATTAGAACTCT) | 1.34 |
| ACTAGAACATGGACCGGTTTTCCCGGTAATCCGTATTTGAG (site CCTAGAACTCT) | 1.33 |
| ACTAGAACATGGACCGGTTTTCCCGGTAATCCGTATTTGAG (site GCTAGAACTCT) | 0.34 |
| ACTAGAACATGGACCGGTTTTCCCGGTAATCCGTATTTGAG (site TCTAGAACTCT) | 0.854 |
| ACTAGAACATGGACCGGTTTTCCCGGTAATCCGTATTTGCG (site ACTAGAACTCA) | 0.0146 |
| ACTAGAACATGGACCGGTTTTCCCGGTAATCCGTATTTGCG (site ACTAGAACTCC) | 0.0147 |
| ACTAGAACATGGACCGGTTTTCCCGGTAATCCGTATTTGCG (site ACTAGAACTCG) | 2.19 |
| ACTAGAACATGGACCGGTTTTCCCGGTAATCCGTATTTGCG (site ACTAGAACTCT) | 0.412 |
| ACTAGACCATGGACCGGTTTTCCCGGTAATCCGTATTTGGA (site ACTAGACCTTC) | 0.014 |
| ACTAGAGCATGGACCGGTTTTCCCGGTAATCCGTATTTGAG (site ACTAGAACTCT) | 1.52 |
| ACTAGAGCATGGACCGGTTTTCCCGGTAATCCGTATTTGAG (site ACTAGACCTCT) | 0 |
| ACTAGAGCATGGACCGGTTTTCCCGGTAATCCGTATTTGAG (site ACTAGAGCTCT) | 2.15 |
| ACTAGAGCATGGACCGGTTTTCCCGGTAATCCGTATTTGAG (site ACTAGATCTCT) | 1.65 |
| ACTAGAGCATGGACCGGTTTTCCCGGTAATCCGTATTTGCA (site ACTAGAGCTTG) | 2.15 |
| ACTAGCGCATGGACCGGTTTTCCCGGTAATCCGTATTTGGT (site ACTAGAGCTAC) | 0.428 |
| ACTAGCGCATGGACCGGTTTTCCCGGTAATCCGTATTTGGT (site ACTAGCGCTAC) | 1.86 |
| ACTAGCGCATGGACCGGTTTTCCCGGTAATCCGTATTTGGT (site ACTAGGGCTAC) | 0.00433 |
| ACTAGCGCATGGACCGGTTTTCCCGGTAATCCGTATTTGGT (site ACTAGTGCTAC) | 0.00815 |
| ACTAGGACATGGACCGGTTTTCCCGGTAATCCGTATTTGAG (site ACTAGAACTCT) | 2.04 |
| ACTAGGACATGGACCGGTTTTCCCGGTAATCCGTATTTGAG (site ACTAGCACTCT) | 0.00393 |
| ACTAGGACATGGACCGGTTTTCCCGGTAATCCGTATTTGAG (site ACTAGGACTCT) | 2.15 |
| ACTAGGACATGGACCGGTTTTCCCGGTAATCCGTATTTGAG (site ACTAGTACTCT) | 0.226 |
| ACTAGGGCATGGACCGGTTTTCCCGGTAATCCGTATTTGGT (site ACTAGAGCTAC) | 1.2 |
